Experimental data taken from patent publication US20250241894A1, “TREATMENT OF MENTAL DISORDERS” (GH RESEARCH IRELAND LIMITED, priority 2022, published 2025).

Experiments:
[1] = system: patients with treatment-resistant major depressive disorder (TRD); assay: Phase 1/2 clinical trial of inhaled 5-MeO-DMT in TRD: Part A single dose 12 mg or 18 mg; Part B individualized dosing regimen (IDR) 6, 12, 18 mg in a single day
Description: Patients were assigned to different groups. In the context of the present invention, the group who received a single, 12 mg dose and the group who underwent an intra-day individualized dosing regimen (IDR) that allowed for multiple, escalating doses (6 mg, 12 mg and 18 mg) within a single day, driven by the intensity of the patient-reported psychedelic experience are of interest.
This trial was designed in two parts. Part A was an open-label, single-arm, single-dose Phase 1 trial with two dose levels (12 mg (n=4) and 18 mg (n=4)). […] The primary endpoint of Part B was to assess the effects on the severity of depression, as assessed by the proportion of patients in remission on day seven after dosing, defined as a MADRS total score of less than or equal to 10.

[2] = system: Escherichia coli (WP2 uvrA pKM101); assay: Bacterial mutation test with and without S-9; assay type: cell-based; conditions: up to 5000 μg/plate, absence and presence of S-9
Description: (§1) These conditions included treatments at concentrations up to 5000 μg/plate (the maximum recommended concentration according to current regulatory guidelines), in the absence and in the presence of a rat liver metabolic activation system (S-9).

[3] = system: Salmonella typhimurium (TA98, TA100, TA1535 and TA1537); assay: Bacterial mutation test with and without S-9; assay type: cell-based; conditions: up to 5000 μg/plate, absence and presence of S-9
Description: as §1

[4] = 12 mg n=4, 2 hours, baseline 16

With `COc1ccc2[nH]cc(CCN(C)C)c2c1` [5-MeO-DMT] the “MADRS Suicidal Thoughts improvement” value ([1]; 12 mg n=4, 2 hours, baseline 8) was 5 points, the “MADRS Inner Tension improvement” value ([1]; 12 mg n=4, 2 hours, baseline 13) was 11 points and the “MADRS Concentration Difficulties improvement” value [1, 4] was 9 points. The “MADRS Inability to Feel improvement” value [1, 4] was 7 points, the “MADRS Lassitude improvement” value [1, 4] was 6 points and the “MADRS Pessimistic Thoughts improvement” value [1, 4] was 8 points. For the same compound, the “BPRS Blunted Affect improvement” value ([1]; 12 mg n=4, 3 hours, baseline 11) was 3 points, the “BPRS Emotional Withdrawal improvement” value ([1]; 12 mg n=4, 3 hours, baseline 13) was 2 points and the “BPRS Tension improvement” value ([1]; 12 mg n=4, 3 hours, baseline 14) was 5 points. For the same compound, the “BPRS Guilt Feelings improvement” value ([1]; 12 mg n=4, 3 hours, baseline 18) was 9 points, the “BPRS Anxiety improvement” value ([1]; 12 mg n=4, 3 hours, baseline 25) was 14 points and the “MADRS Suicidal Thoughts improvement” value ([1]; 12 mg n=4, Day 1, baseline 8) was 3 points. For the same compound, the “BPRS Blunted Affect improvement” value ([1]; 12 mg n=4, Day 1, baseline 11) was 5 points, the “MADRS Reduced Sleep improvement” value ([1]; 12 mg n=4, Day 1, baseline 12) was 2 points and the “BPRS Emotional Withdrawal improvement” value ([1]; 12 mg n=4, Day 1, baseline 13) was 5 points. The “MADRS Inner Tension improvement” value ([1]; 12 mg n=4, Day 1, baseline 13) was 10 points, the “BPRS Tension improvement” value ([1]; 12 mg n=4, Day 1, baseline 14) was 8 points and the “MADRS Concentration Difficulties improvement” value ([1]; 12 mg n=4, Day 1, baseline 16) was 14 points. The “MADRS Inability to Feel improvement” value ([1]; 12 mg n=4, Day 1, baseline 16) was 15 points, the “MADRS Lassitude improvement” value ([1]; 12 mg n=4, Day 1, baseline 16) was 16 points and the “MADRS Pessimistic Thoughts improvement” value ([1]; 12 mg n=4, Day 1, baseline 16) was 9 points. The “BPRS Guilt Feelings improvement” value ([1]; 12 mg n=4, Day 1, baseline 18) was 13 points, the “BPRS Anxiety improvement” value ([1]; 12 mg n=4, Day 1, baseline 25) was 19 points and the “MADRS Suicidal Thoughts improvement” value ([1]; 12 mg n=4, Day 7, baseline 8) was 1 points. The “BPRS Blunted Affect improvement” value ([1]; 12 mg n=4, Day 7, baseline 11) was 6 points, the “MADRS Reduced Sleep improvement” value ([1]; 12 mg n=4, Day 7, baseline 12) was 6 points and the “BPRS Emotional Withdrawal improvement” value ([1]; 12 mg n=4, Day 7, baseline 13) was 7 points. For the same compound, the “MADRS Inner Tension improvement” value ([1]; 12 mg n=4, Day 7, baseline 13) was 8 points, the “BPRS Tension improvement” value ([1]; 12 mg n=4, Day 7, baseline 14) was 8 points and the “MADRS Concentration Difficulties improvement” value ([1]; 12 mg n=4, Day 7, baseline 16) was 13 points. The “MADRS Inability to Feel improvement” value ([1]; 12 mg n=4, Day 7, baseline 16) was 15 points, the “MADRS Lassitude improvement” value ([1]; 12 mg n=4, Day 7, baseline 16) was 13 points and the “MADRS Pessimistic Thoughts improvement” value ([1]; 12 mg n=4, Day 7, baseline 16) was 8 points. The “BPRS Guilt Feelings improvement” value ([1]; 12 mg n=4, Day 7, baseline 18) was 13 points, the “BPRS Anxiety improvement” value ([1]; 12 mg n=4, Day 7, baseline 25) was 19 points and the “MADRS Suicidal Thoughts improvement” value ([1]; IDR n=8, 2 hours, baseline 11) was 8 points. The “MADRS Inner Tension improvement” value ([1]; IDR n=8, 2 hours, baseline 26) was 15 points, the “MADRS Lassitude improvement” value ([1]; IDR n=8, 2 hours, baseline 27) was 17 points and the “MADRS Pessimistic Thoughts improvement” value ([1]; IDR n=8, 2 hours, baseline 28) was 21 points. The “MADRS Concentration Difficulties improvement” value ([1]; IDR n=8, 2 hours, baseline 30) was 19 points, the “MADRS Inability to Feel improvement” value ([1]; IDR n=8, 2 hours, baseline 36) was 24 points and the “BPRS Emotional Withdrawal improvement” value ([1]; IDR n=8, 3 hours, baseline 13) was 5 points. The “BPRS Blunted Affect improvement” value ([1]; IDR n=8, 3 hours, baseline 15) was 4 points, the “BPRS Tension improvement” value ([1]; IDR n=8, 3 hours, baseline 16) was 5 points and the “BPRS Guilt Feelings improvement” value ([1]; IDR n=8, 3 hours, baseline 34) was 20 points. For the same compound, the “BPRS Anxiety improvement” value ([1]; IDR n=8, 3 hours, baseline 37) was 18 points, the “MADRS Suicidal Thoughts improvement” value ([1]; IDR n=8, Day 1, baseline 11) was 10 points and the “BPRS Emotional Withdrawal improvement” value ([1]; IDR n=8, Day 1, baseline 13) was 5 points. The “BPRS Blunted Affect improvement” value ([1]; IDR n=8, Day 1, baseline 15) was 7 points, the “BPRS Tension improvement” value ([1]; IDR n=8, Day 1, baseline 16) was 5 points and the “MADRS Reduced Sleep improvement” value ([1]; IDR n=8, Day 1, baseline 25) was 13 points. For the same compound, the “MADRS Inner Tension improvement” value ([1]; IDR n=8, Day 1, baseline 26) was 20 points, the “MADRS Lassitude improvement” value ([1]; IDR n=8, Day 1, baseline 27) was 22 points and the “MADRS Pessimistic Thoughts improvement” value ([1]; IDR n=8, Day 1, baseline 28) was 24 points. For the same compound, the “MADRS Concentration Difficulties improvement” value ([1]; IDR n=8, Day 1, baseline 30) was 29 points, the “BPRS Guilt Feelings improvement” value ([1]; IDR n=8, Day 1, baseline 34) was 23 points and the “MADRS Inability to Feel improvement” value ([1]; IDR n=8, Day 1, baseline 36) was 34 points. For the same compound, the “BPRS Anxiety improvement” value ([1]; IDR n=8, Day 1, baseline 37) was 21 points, the “MADRS Suicidal Thoughts improvement” value ([1]; IDR n=8, Day 7, baseline 11) was 8 points and the “BPRS Emotional Withdrawal improvement” value ([1]; IDR n=8, Day 7, baseline 13) was 5 points. The “BPRS Blunted Affect improvement” value ([1]; IDR n=8, Day 7, baseline 15) was 7 points, the “BPRS Tension improvement” value ([1]; IDR n=8, Day 7, baseline 16) was 6 points and the “MADRS Reduced Sleep improvement” value ([1]; IDR n=8, Day 7, baseline 25) was 16 points. The “MADRS Inner Tension improvement” value ([1]; IDR n=8, Day 7, baseline 26) was 14 points, the “MADRS Lassitude improvement” value ([1]; IDR n=8, Day 7, baseline 27) was 24 points and the “MADRS Pessimistic Thoughts improvement” value ([1]; IDR n=8, Day 7, baseline 28) was 25 points. The “MADRS Concentration Difficulties improvement” value ([1]; IDR n=8, Day 7, baseline 30) was 21 points, the “BPRS Guilt Feelings improvement” value ([1]; IDR n=8, Day 7, baseline 34) was 24 points and the “MADRS Inability to Feel improvement” value ([1]; IDR n=8, Day 7, baseline 36) was 30 points. For the same compound, the “BPRS Anxiety improvement” value ([1]; IDR n=8, Day 7, baseline 37) was 20 points, the SAEs ([1]; Part A 12 mg and 18 mg) was “No SAEs” and the “Severity and outcome of ADRs” value ([1]; Part A 12 mg and 18 mg) was “mild and resolved spontaneously”. For the same compound, the “Proportion of patients in MADRS remission” value ([1]; Part A 12 mg n=4, day seven) was 50%, the “Further patients with MADRS clinical response” value ([1]; Part A 18 mg n=4, day seven) was 25% and the “Proportion of patients in MADRS remission” value ([1]; Part A 18 mg n=4, day seven) was 25%. For the same compound, the “Outcome of ADRs” value ([1]; Part B IDR) was “resolved spontaneously”, the SAEs ([1]; Part B IDR) was “No SAEs” and the “Proportion of patients in MADRS remission (total score <=10)” value ([1]; Part B IDR n=8, day seven) was 87.5%. The Mutation induction [2] was “did not induce mutation” and the Mutation induction [3] was “did not induce mutation”.
